Test results taken from paper PMC9848257, “Design and synthesis of novel rigid dibenzo[b,f]azepines through ring closure technique as promising anticancer candidates against leukaemia and acting as selective topoisomerase II inhibitors and DNA intercalators” (Journal of Enzyme Inhibition and Medicinal Chemistry, 2023).

How the values were obtained:
UO-31 = test: NCI-60 one-dose screen, UO-31; assay type: cell-based; settings: Homo sapiens; UO-31, renal cancer; single dose 10 μM; read-out: Growth inhibition %
Experimental: (§1) Anti-proliferative effects of the counterparts 4a–g and 5a–g were screened against 60 human cancer cell lines, following the Developmental Therapeutics Program protocol, National Cancer Institute[35].
(§2) The anti-tumour activity of the fourteen synthesised congeners was investigated at the NCI against a panel of 60 cancer cell lines (NCI-60 Cell One-Dose Screen). The tested dibenzo[b,f]azepine derivatives were screened at a single dose level (10 μM), Table 1.

NCI-H460 = test: NCI-60 one-dose screen, NCI-H460; assay type: cell-based; settings: Homo sapiens; NCI-H460, non-small cell lung cancer; single dose 10 μM; read-out: Growth inhibition %
Experimental: as §1, §2

HOP-92 = test: NCI-60 one-dose screen, HOP-92; assay type: cell-based; settings: Homo sapiens; HOP-92, non-small cell lung cancer; single dose 10 μM; read-out: Growth inhibition %
Experimental: as §1, §2

HCC-2998 = test: NCI-60 one-dose screen, HCC-2998; assay type: cell-based; settings: Homo sapiens; HCC-2998, colon cancer; single dose 10 μM; read-out: Growth inhibition %
Experimental: as §1, §2

EKVX = test: NCI-60 one-dose screen, EKVX; assay type: cell-based; settings: Homo sapiens, non-small cell lung cancer, single dose 10 μM, read-out: Growth inhibition %
Experimental: as §1, §2

OVCAR-5 = test: NCI-60 one-dose screen, OVCAR-5; assay type: cell-based; settings: Homo sapiens; OVCAR-5, ovarian cancer; single dose 10 μM; read-out: Growth inhibition %
Experimental: as §1, §2

MDA-MB-435 = test: NCI-60 one-dose screen, MDA-MB-435; assay type: cell-based; settings: Homo sapiens; MDA-MB-435, melanoma; single dose 10 μM; read-out: Growth inhibition %
Experimental: as §1, §2

HCT-116 = test: NCI-60 one-dose screen, HCT-116; assay type: cell-based; settings: Homo sapiens; HCT-116, colon cancer; single dose 10 μM; read-out: Growth inhibition %
Experimental: as §1, §2

786-0 = test: NCI-60 one-dose screen, 786-0; assay type: cell-based; settings: Homo sapiens; 786-0, renal cancer; single dose 10 μM; read-out: Growth inhibition %
Experimental: as §1, §2

NCI/ADR-RES = test: NCI-60 one-dose screen, NCI/ADR-RES; assay type: cell-based; settings: Homo sapiens, ovarian cancer, single dose 10 μM, read-out: Growth inhibition %
Experimental: as §1, §2

SN12C = test: NCI-60 one-dose screen, SN12C; assay type: cell-based; settings: Homo sapiens, renal cancer, single dose 10 μM, read-out: Growth inhibition %
Experimental: as §1, §2

U251 = test: NCI-60 one-dose screen, U251; assay type: cell-based; settings: Homo sapiens, U-251; U251, CNS cancer; single dose 10 μM; read-out: Growth inhibition %
Experimental: as §1, §2

SNB-19 = test: NCI-60 one-dose screen, SNB-19; assay type: cell-based; settings: Homo sapiens; SNB-19, CNS cancer; single dose 10 μM; read-out: Growth inhibition %
Experimental: as §1, §2

MCF-7 = test: NCI-60 one-dose screen, MCF-7; assay type: cell-based; settings: Homo sapiens, MCF7; MCF-7, breast cancer; single dose 10 μM; read-out: Growth inhibition %
Experimental: as §1, §2

topoisomerase II = test: Topoisomerase II inhibitory assay; assay type: biochemical; settings: for IC50: in vitro, doxorubicin co-assayed as reference
Experimental: Therefore, following the procedure reported by Patra et al., the topoisomerase II activity was evaluated.

MOLT-4 = test: NCI-60 one-dose screen, MOLT-4; assay type: cell-based; settings: Homo sapiens; MOLT-4, leukaemia; single dose 10 μM; read-out: Growth inhibition %
Experimental: as §1, §2

SK-MEL-28 = test: NCI-60 one-dose screen, SK-MEL-28; assay type: cell-based; settings: Homo sapiens; SK-MEL-28, melanoma; single dose 10 μM; read-out: Growth inhibition %
Experimental: as §1, §2

NCI-H522 = test: NCI-60 one-dose screen, NCI-H522; assay type: cell-based; settings: Homo sapiens; NCI-H522, non-small cell lung cancer; single dose 10 μM; read-out: Growth inhibition %
Experimental: as §1, §2

TK-10 = test: NCI-60 one-dose screen, TK-10; assay type: cell-based; settings: Homo sapiens; TK-10, renal cancer; single dose 10 μM; read-out: Growth inhibition %
Experimental: as §1, §2

RPMI-8226 = test: NCI-60 one-dose screen, RPMI-8226; assay type: cell-based; settings: Homo sapiens; RPMI-8226, leukaemia; single dose 10 μM; read-out: Growth inhibition %
Experimental: as §1, §2

UACC-62 = test: NCI-60 one-dose screen, UACC-62; assay type: cell-based; settings: Homo sapiens; UACC-62, melanoma; single dose 10 μM; read-out: Growth inhibition %
Experimental: as §1, §2

PC-3 = test: NCI-60 one-dose screen, PC-3; assay type: cell-based; settings: Homo sapiens; PC-3, prostate cancer; single dose 10 μM; read-out: Growth inhibition %
Experimental: as §1, §2

IGROV1 = test: NCI-60 one-dose screen, IGROV1; assay type: cell-based; settings: Homo sapiens, IGROV-1; IGROV1, ovarian cancer; single dose 10 μM; read-out: Growth inhibition %
Experimental: as §1, §2

SR = test: NCI-60 one-dose screen, SR; assay type: cell-based; settings: Homo sapiens, leukaemia, single dose 10 μM, read-out: Growth inhibition %
Experimental: as §1, §2

SMILES | inhibition at 10 µM (UO-31) [%] | inhibition at 10 µM (NCI-H460) [%] | inhibition at 10 µM (HOP-92) [%] | inhibition at 10 µM (HCC-2998) [%] | inhibition at 10 µM (EKVX) [%] | inhibition at 10 µM (OVCAR-5) [%] | inhibition at 10 µM (MDA-MB-435) [%] | inhibition at 10 µM (HCT-116) [%] | inhibition at 10 µM (786-0) [%] | inhibition at 10 µM (NCI/ADR-RES) [%] | inhibition at 10 µM (SN12C) [%] | inhibition at 10 µM (SNB-19) [%] | inhibition at 10 µM (MCF-7) [%] | inhibition at 10 µM (MOLT-4) [%] | inhibition at 10 µM (SK-MEL-28) [%] | inhibition at 10 µM (NCI-H522) [%] | inhibition at 10 µM (TK-10) [%] | inhibition at 10 µM (RPMI-8226) [%] | inhibition at 10 µM (UACC-62) [%] | inhibition at 10 µM (PC-3) [%] | further results
Cc1ccc(-c2nnc(N3c4ccccc4C=Cc4ccccc43)o2)cc1 [Compound 5d, 2-(5 h-Dibenzo[b,f]azepin-5-yl)-5-(p-tolyl)-1,3,4-oxadiazole] | < 10 | 58.6 | 14.3 | < 10 | < 10 | < 10 | < 10 | 45.8 | < 10 | < 10 | < 10 | < 10 | 15.7 | 21 | < 10 | 17.1 | < 10 | 52 | 20.9 | 41.4 | inhibition at 10 µM (U251): 31.8%; IC50 (topoisomerase II): 16.8 µM; inhibition at 10 µM (IGROV1): < 10%; inhibition at 10 µM (SR): 60.6%; melting point: 239 to 241 °C
O=[N+]([O-])c1ccc(-c2nnc(N3c4ccccc4C=Cc4ccccc43)o2)cc1 [Compound 5e, 2-(5 h-Dibenzo[b,f]azepin-5-yl)-5–(4-nitrophenyl)-1,3,4-oxadiazole] | 30.7 | 1.84 | 22.8 | < 10 | < 10 | < 10 | < 10 | < 10 | < 10 | < 10 | < 10 | < 10 | 17.4 | 19.4 | < 10 | 15 | < 10 | < 10 | 30 | 24.6 | Percentage of topoisomerase II inhibition (topoisomerase II; at the concentration of 100 µM (Figure 3A)): 89%; IC50 (topoisomerase II): 6.36 µM; inhibition at 10 µM (IGROV1): < 10%; inhibition at 10 µM (SR): 30.1%; melting point: 146 to 148 °C
C1=Cc2ccccc2N(c2nnc(Cc3ccccc3)o2)c2ccccc21 [Compound 5g, 2-Benzyl-5-(5H-dibenzo[b,f]azepin-5-yl)-1,3,4-oxadiazole] | 30.7 | 17.4 | < 10 | < 10 | 2.24 | < 10 | < 10 | 31.4 | 18.8 | < 10 | < 10 | < 10 | < 10 | 10.9 | < 10 | < 10 | 21.1 | 27.8 | 10.8 | < 10 | inhibition at 10 µM (U251): 10.1%; IC50 (topoisomerase II): 18.9 µM; inhibition at 10 µM (IGROV1): < 10%; inhibition at 10 µM (SR): 17.6%; melting point: 189 to 191 °C
O=C(NNC(=O)N1c2ccccc2C=Cc2ccccc21)c1ccc2ccccc2c1 [Compound 4f, N′-(2-Naphthoyl)-5H-dibenzo[b,f]azepine-5-carbohydrazide] | 12 | < 10 | 18.6 | < 10 | 11 | < 10 | < 10 | < 10 | < 10 | < 10 | < 10 | < 10 | 14 | < 10 | < 10 | 14.1 | < 10 | < 10 | 18.9 | 25.1 | inhibition at 10 µM (U251): < 10%; inhibition at 10 µM (IGROV1): < 10%; inhibition at 10 µM (SR): 12.8%; melting point: 243 to 245 °C
O=C(NNC(=O)N1c2ccccc2C=Cc2ccccc21)c1ccccc1 [Compound 4a, N′-Benzoyl-5H-dibenzo[b,f]azepine-5-carbohydrazide] | < 10 | < 10 | < 10 | < 10 | < 10 | < 10 | < 10 | < 10 | < 10 | < 10 | < 10 | < 10 | < 10 | < 10 | < 10 | < 10 | < 10 | < 10 | < 10 | < 10 | inhibition at 10 µM (U251): < 10%; inhibition at 10 µM (IGROV1): < 10%; inhibition at 10 µM (SR): < 10%; melting point: 222 to 224 °C
